Laboratory results reported in PubChem BioAssay AID977628 (Broad Institute, 2014).
Results filed as inconclusive are left out. Activity calls are given as the source filed them.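 Rule for the calls: active = compound lowering the normal-ribosome reporter at least twice as much as the humanized-ribosome reporter, growth loss under a set limit; inconclusive = no clear call, values can overlap the other calls; inactive = the rest.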

Tests used:
Assay in all cases: E. coli growth inhibition, wild-type GFP versus h24 humanized RFP strain, dose response, h24 mutant RFP vs wild-type GFP, cherry-pick (AID 977628)
[1] = test system: E. coli h24 humanized mutant RFP strain growth, fluorescence, 24 h
[2] = test system: E. coli WT GFP strain growth, fluorescence, 24 h
[3] = test system: E. coli mixed WT/h24 culture total growth, OD600, 24 h

| SMILES | AC50 [1] | AC50 [2] | AC50 [3] |
| --- | --- | --- | --- |
| CCOc1ccc(S(=O)(=O)N(C)c2ccc(OCC(=O)NCc3cccnc3)cc2)cc1 | > 100 µM | – | – |
| O=C(CSCc1cnn(-c2ccccc2)c1-n1cccc1)NCc1cccnc1 | > 100 µM | – | – |
| COc1ccc2c(c1)c1ncn(Cc3ccccn3)c(=O)c1n2C | > 100 µM | – | – |
| c1ccc(CSCc2ccccc2)cc1 | > 100 µM | – | – |
| COCC(C)NC(=O)c1nn(Cc2ccccc2)c(=O)c2ccccc12 (stereo unspecified) | > 100 µM | – | – |
| O=C1c2ccccc2C(c2nnnn2C2CCCCC2)N1CCc1ccc(O)cc1 (stereo unspecified) | > 100 µM | – | – |
| Cc1cccc(-n2cnc3cc([N+](=O)[O-])ccc32)c1 | > 100 µM | – | – |
| Nc1ccc(C(=O)OCCc2ccccc2)cc1 | > 100 µM | – | – |
| CCc1cccc(NC(=O)CN(C)S(=O)(=O)c2cccc3cccnc23)c1 | > 100 µM | – | – |
| O=C(O)CC1(CC(=O)Nc2ccc3sccc3c2)CCCCC1 | > 100 µM | – | – |
| CCOc1ccc2oc(-c3ccccc3)c(C(=O)N(C)C)c2c1 | > 100 µM | – | – |
| O=C(NCc1ccccc1Cl)c1ccc2c(c1)SC1=NS(=O)(=O)CCN12 | > 100 µM | – | – |
| C(=C/c1nccc2c1[nH]c1ccccc12)/c1ccc2c(c1)OCO2 | > 100 µM | – | – |
| CC(=O)c1c(C)nn(CC(O)COc2ccc3c(c2)CCC3)c1C (stereo unspecified) | – | > 100 µM (inactive) | 50.1 µM |
| CCn1cc(Cl)c(C(=O)Nc2cccc(C(F)(F)F)c2)n1 | – | > 100 µM (inactive) | > 100 µM |
| COc1ccc(C(=O)COC(=O)c2ccccc2O)c(OC)c1 | – | > 100 µM (inactive) | 40 µM |
| Cc1cc(OCC(=O)N(Cc2ccco2)C2CCS(=O)(=O)C2)ccc1Cl (stereo unspecified) | – | > 100 µM (inactive) | > 100 µM |
| Nc1[nH]c(C(=O)c2ccccc2)c(-c2ccc(Br)cc2)c1C(=O)c1cccs1 | – | > 100 µM (inactive) | > 100 µM |
| CCN(CC)CC(=O)Nc1ccc(-c2ccc(NC(=O)CN(CC)CC)c(OC)c2)cc1OC | – | > 100 µM (inactive) | > 100 µM |
| O=C(NCc1ccc(Cl)cc1)c1csc(-c2cccnc2)n1 | – | > 100 µM (inactive) | 49.1 µM |
| CCN(c1ccccc1)S(=O)(=O)c1ccc(Cl)c(C(=O)NCc2ccco2)c1 | – | > 100 µM (inactive) | 38.5 µM |

| SMILES | AC50 [1] | AC50 [2] | AC50 [3] |
| --- | --- | --- | --- |
| COc1ccc(OC)c(-c2csc(NC(=O)C3COc4ccccc4O3)n2)c1 (stereo unspecified) | – | > 100 µM (inactive) | > 100 µM |
| CC(=O)c1c(N2CCOCC2)nc2ccc(Cl)cc2c1-c1ccccc1 | – | > 100 µM (inactive) | > 100 µM |
| COC(=O)c1c(C)oc(C)c1S(=O)(=O)NC(c1ccccc1)c1ccccc1 | – | > 100 µM (inactive) | 44.4 µM |
| Brc1cc2c(cc1Br)OCCOCCOCCO2 | – | > 100 µM (inactive) | > 100 µM |
| Cc1cc(CNC(=O)COc2ccc(C)c(C)c2)c2ccccc2n1 | – | > 100 µM (inactive) | 39 µM |
| Cc1ccc(C)c(-c2[nH]ncc2CN2CCCC(CO)(Cc3ccccc3C)C2)c1 (stereo unspecified) | – | > 100 µM (inactive) | > 100 µM |
| O=C(c1ccc(-c2ccccc2)c(F)c1)C1CCCN(CCCn2cccn2)C1 (stereo unspecified) | – | > 100 µM (inactive) | > 100 µM |
| NC(=O)c1ccsc1NC(=O)COC(=O)CCOc1ccccc1 | – | > 100 µM (inactive) | 46.3 µM |
| Cc1cc(NC(=O)CSc2nccn2-c2cccc(C)c2C)no1 | – | > 100 µM (inactive) | > 100 µM |
| CCCN(CC1CC1)C(=O)CSc1ncnc2sccc12 | – | > 100 µM (inactive) | > 100 µM |
| O=C(COc1ccc(Cl)cc1)Nc1ncc([N+](=O)[O-])s1 | – | > 100 µM (inactive) | 40.2 µM |
| Cc1cc(Cl)n2ncc(-c3ccccc3)c2n1 | – | > 100 µM (inactive) | > 100 µM |
| CC(C)Oc1cccc(C(=O)C2CCCN(C(=O)c3cc(C(F)(F)F)[nH]n3)C2)c1 (stereo unspecified) | – | > 100 µM (inactive) | 51.3 µM |
| C=CCn1c(-c2sc(-c3ccccc3)nc2C)n[nH]c1=S | – | > 100 µM (inactive) | > 100 µM |
| Cc1cccc(OCCC(=O)Nc2ccc(F)c(F)c2)c1 | – | > 100 µM (inactive) | > 100 µM |
| O=C(CSc1ccc(-c2cccnc2)nn1)N1CCCc2ccccc21 | – | > 100 µM (inactive) | > 100 µM |
| CCCNC(=O)c1cc(C2CCCN(S(=O)(=O)c3cccc4cccnc34)C2)on1 (stereo unspecified) | – | > 100 µM (inactive) | > 100 µM |
| CN(C)CCCN(C(=O)c1ccc(S(=O)(=O)N(C)Cc2ccccc2)cc1)c1nc2c(F)cccc2s1 | – | > 100 µM (inactive) | 39.3 µM |
| CCCc1nc2oc3c(NCCCN(C)C)ncnc3c2c2c1CCCC2 | – | > 100 µM (inactive) | > 100 µM |
| C=CCn1c(CCSCc2ccc(OC)c(C)c2)n[nH]c1=S | – | > 100 µM (inactive) | 51.2 µM |
| CC(C)Oc1ccc(C(CC(=O)O)NC(=O)C(Sc2ccccc2)c2ccccc2)cc1 (stereo unspecified) | – | > 100 µM (inactive) | > 100 µM |

| SMILES | AC50 [1] | AC50 [2] | AC50 [3] |
| --- | --- | --- | --- |
| Cc1ccc(C(=O)Nc2cccc(-c3cn4ccccc4n3)c2)cc1 | – | > 100 µM (inactive) | 51.5 µM |
| CC1CCN(c2ccc3nnc(CCC(=O)Nc4cccc(F)c4)n3n2)CC1 | – | > 100 µM (inactive) | > 100 µM |
| COc1ccc(NS(=O)(=O)c2cccc3ccccc23)cc1 | – | > 100 µM (inactive) | 40.6 µM |
| O=[N+]([O-])c1ccccc1Oc1ccc(Cl)c2cccnc12 | – | > 100 µM (inactive) | > 100 µM |
| Cc1cc(NC(=O)COC(=O)CSCc2ccc(Cl)c(Cl)c2)no1 | – | > 100 µM (inactive) | > 100 µM |
| COC(=O)c1cc(C(=O)Cc2ccccc2)c[nH]1 | – | > 100 µM (inactive) | > 100 µM |
| O=C(COC(=O)C12CC3CC(CC(O)(C3)C1)C2)NCCc1ccc(Cl)cc1 | – | > 100 µM (inactive) | > 100 µM |
| C=C1SC(Nc2c(C)cc(C)cc2C)=NC12CCCCC2 | – | > 100 µM (inactive) | 22.8 µM |
| Cc1cc(C(=O)OCC(=O)Nc2cccc(S(N)(=O)=O)c2)c2ccccc2n1 | – | > 100 µM (inactive) | > 100 µM |
| COc1ccc(-c2nc3ccc(Cl)cn3c2Cc2cccc(F)c2)cc1OC | – | > 100 µM (inactive) | 51.6 µM |
| Cc1ccccc1CSCC(=O)Nc1ccccc1F | – | > 100 µM (inactive) | > 100 µM |
| Cc1cc(C)n(CC(O)COc2ccc3ccccc3c2)n1 (stereo unspecified) | – | > 100 µM (inactive) | > 100 µM |
| COc1ccc(-n2ccnc2SCC(=O)NCc2ccccc2)c(OC)c1 | – | > 100 µM (inactive) | > 100 µM |
| COc1ccc(OC)c(NC(=O)COC(=O)C2CCN(C(=O)c3ccc(Cl)cc3)CC2)c1 | – | > 100 µM (inactive) | > 100 µM |
| COc1cc(C(F)(F)F)c(C(=O)N(C)Cc2ccc(Cl)c(Cl)c2)cn1 | – | > 100 µM (inactive) | > 100 µM |
| CC(CCc1ccccc1)NC(=O)CNC(=O)COc1ccccc1 (stereo unspecified) | – | > 100 µM (inactive) | > 100 µM |
| COc1ccc(CC(=O)NCc2csc(-c3cccs3)n2)cc1OC | – | > 100 µM (inactive) | > 100 µM |
| COc1ccc(C(=O)Nc2ccc(Nc3ccccc3)cc2)cc1[N+](=O)[O-] | – | > 100 µM (inactive) | > 100 µM |
| O=C(NCc1ccc(-c2nc3ccccc3s2)cc1)c1ccco1 | – | > 100 µM (inactive) | 4.43 µM |
| NC(=O)C1Cc2ccccc2CN1C(=O)c1cc(C2CC2)nn1-c1ccccc1 (stereo unspecified) | – | > 100 µM (inactive) | 46.8 µM |
